Data as given in paper PMC13538172, “Zonisamide nanodiamonds for brain targeting: A comprehensive study utilising in silico, in vitro, in vivo, and molecular investigation for successful nose-to-brain delivery for epilepsy management” (Drug Delivery and Translational Research, 2025).
Where “and” joins values, the source holds several entries; their conditions need not be identical. Equal entries are not always repeated.

Assay: Brain uptake, biodistribution and pharmacokinetics of 99mTc-radiolabelled ZNS in mice
Type: in vivo, male Swiss albino mice
Conditions: for Cmax (%ID/g), blood / Cmax (%ID/g), brain: n = 6
Protocol: Then, 100 μL of freshly eluted ^99mTc-pertechnetate; 99mTcO4- (200 MBq) was added to the above mixture, and the reaction mixture was vigorously shaken for 15 minutes. Radiochromatographic analysis was developed using the ascending paper chromatography (PC) technique to monitor the radiochemical purity of the ^99mTc-labelled compound using two distinct mobile phases; acetone was used to detect free pertechnetate, which migrated to Rf = 1, while the other component remained at Rf = 0 and a second mobile phase, comprising NH4OH, C2H5OH, and H2O (1:2:5), was used to determine the reduced hydrolyzed (R-H) 99mTc-colloid, which remained at Rf = 0, whereas ^99mTc-labelled compound and free pertechnetate migrated to Rf = 1 [7, 47]. Two drops of the reaction product and free 99mTcO4 were placed on two strips of Whatman PC on the origin line, 2 cm far from the base, to be developed by developing solvents. The experiments were conducted in triplicate to ensure the reproducibility and reliability of the results. As the developing process was terminated, the strip was dried, trimmed into 1 cm size pieces, and counted using the sodium iodide (NaI) γ-ray scintillation counter (A good-type NaI scintillation γ-Counter model scalar rate meter SR7 (Nuclear Enterprises Ltd., USA). The radiochemical yield percent of ^99mTc–ZNS was calculated using Eq. (3)3 %Radiochemicalyield=100-%Free99mTc-%colloid99mTc
The experiment protocol was approved by the University of October for Modern Sciences and Arts (MSA) ethical committee (Pt2/Ec2/2022PD), where the principles of the Declaration of Helsinki were followed. The mice were maintained in cabins of a size that suits groups of five at room temperature with a 12 h light/dark cycle and accessibility to food and water ad libitum. The mice were divided into four groups. Mice in group 1 served as a control and received no treatments. Mice in group 2 were given ZNS orally using an oral gavage (100 μL). Mice in group 3 were injected intranasally with ^99mTc–ND-ZNS complex in each nostril (100 μL) with the help of a micropipette attached with a low-density polyethene tube having 0.1 mm internal diameter at the delivery site. Mice in group 4 were injected intranasally free ^99mTc–-ZNS similarly. The mice were held from the back in a slanted position during nasal administration of the formulations. Next, mice were anesthetized by chloroform at 5, 15, 30, 60, 120 min post-injection (n=6 mice/time point). Samples of fresh blood and different organs were collected, washed twice using saline solution, made free from adhering tissue/fluid, and weighed. The radioactivity in each tissue/organ was measured using a shielded well-type gamma scintillation counter. The radiopharmaceutical uptake per gram in each tissue/organ was calculated as a fraction of the administered dose. Percent injected dose per gram organ and body fluid (mean %ID per gram organ and body fluid ± SD) in a population of six mice were calculated, and the significance level was set at […].
Drug concentrations in plasma and brain were investigated based on the measured radioactivity as previously discussed. Blood samples were collected at 5, 15, 30, 60, and 120 min post-injection (n=6 mice/time interval). Plasma and brain pharmacokinetic parameters were calculated by non-compartmental analysis using the Microsoft Excel Pharmacokinetics add-on. The rate of drug absorption was estimated through maximum plasma/brain concentration (Cmax), time for maximum plasma/brain concentration (Tmax), the extent of drug absorption via the area under the curve from zero to time (AUC0-t), and the area under the curve from zero to infinity (AUC 0-∞). The data in the form of mean values (± SD) of three determinations were statistically analyzed by applying one-way ANOVA using Minitab 17 software. Data was expressed as mean±S.D and analyzed by ANOVA followed by Tukey's test for multiple comparisons. Differences were considered significant when p was less than 0.05. […]

NS(=O)(=O)Cc1noc2ccccc12 [ZNS, Zonisamide]
tissue distribution of ZNS (brain, liver, kidney, stomach, lungs) (5-120 min, Fig. 6, result in words): minimal distribution in the brain
Brain/Blood Ratio (AUC Brain/AUC Blood) (intranasal): 0.24
LogBB at 15 min (intranasal): −0.55±0.06
LogBB at 15 min (intranasal, listed as free ZNS): −0.556
LogBB at 120 min (intranasal): −0.477
AUC(0-120min), blood (intranasal): 125.25 ± 21.3 %ID/g.min
Tmax (min), blood (intranasal): 15 min
Cmax (%ID/g), blood (intranasal): 1.8 ± 0.7 %ID/g
AUC(0-120min), brain (intranasal): 31 ± 9.6 %ID/g.min
Tmax (min), brain (intranasal): 15 min
Cmax (%ID/g), brain (intranasal): 0.5 ± 0.2 %ID/g
LogBB at 15 min (oral): −0.865
LogBB at 120 min (oral): −1.301
AUC(0-120min), blood (oral): 77.6 ± 15.3 %ID/g.min
Tmax (min), blood (oral): 30 min
Cmax (%ID/g), blood (oral): 1.4 ± 0.07 %ID/g
AUC(0-120min), brain (oral): 7.1 ± 3.1 %ID/g.min
Tmax (min), brain (oral): 15 min
Cmax (%ID/g), brain (oral): 0.2 ± 0.02 %ID/g
Brain/Blood Ratio (AUC Brain/AUC Blood) (oral, listed as free ZNS): 0.09 and 0.091
